Each structure is given as a SMILES string.

In this assay the target is full-length recombinant human FYN A (Homo sapiens (Human), UniProt P06241). The assay is described as follows: ADP-Glo Kinase Assay of FYN kinase inhibition. It counts as biochemical. The gist of the method: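 GST-tagged full-length FYN A (baculovirus, Sf9) at 3 pg preincubated 30 min RT with compound (10-point 3-fold series from 10 μM) in Tris pH 7.5/MgCl2 buffer. 12-mer tyrosine peptide plus 12.5 pmol ATP added, 90 min RT; ADP measured by ADP-Glo luminescence, IC50 from dose-response.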
For orientation: In ADP-Glo the light output rises with the ADP produced.

The mark [1] stands for this setting: primary screen, initial compounds.
The mark [2] stands for this setting: secondary screen, re-synthesized and expanded compounds.

Chain of full-length recombinant human FYN A (P06241 whole entry): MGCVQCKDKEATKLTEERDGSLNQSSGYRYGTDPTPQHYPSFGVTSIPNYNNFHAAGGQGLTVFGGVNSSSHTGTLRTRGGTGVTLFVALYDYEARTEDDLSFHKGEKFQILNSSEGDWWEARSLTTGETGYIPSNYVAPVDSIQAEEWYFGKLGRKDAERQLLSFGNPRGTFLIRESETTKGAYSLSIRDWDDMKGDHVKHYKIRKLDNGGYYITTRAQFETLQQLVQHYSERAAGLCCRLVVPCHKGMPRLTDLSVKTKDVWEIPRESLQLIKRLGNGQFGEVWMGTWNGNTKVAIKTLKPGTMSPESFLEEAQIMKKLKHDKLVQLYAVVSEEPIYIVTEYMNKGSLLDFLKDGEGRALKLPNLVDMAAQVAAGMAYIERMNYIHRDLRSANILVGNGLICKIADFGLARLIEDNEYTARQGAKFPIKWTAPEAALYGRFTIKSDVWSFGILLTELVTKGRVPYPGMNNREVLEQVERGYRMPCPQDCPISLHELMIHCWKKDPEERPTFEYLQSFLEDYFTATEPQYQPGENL

Regarding `CN(C)CCNC(=O)c1ccc(-c2cn3c(-c4cccs4)cnc3cn2)cc1` [388_4147_0327, N-(2-dimethylamino-ethyl)-4-[3-(2-thienyl)imidazo [1,2-a]pyrazin-6-yl]benzamide], the IC50 under setting [1] was 8520 nM.
`c1csc(-c2cn3c(-c4cccs4)cnc3cn2)c1` [388_4147_4147, 3,6-bis(2-thienyl)imidazo [1,2-a]pyrazine]: the IC50 under setting [1] came out at 5030 nM.
As to `Nc1ccc(-c2cn3c(-c4cccs4)cnc3cn2)cn1` [388_4147_7905, 5-[3-(2-thienyl)imidazo [1,2-a]pyrazin-6-yl]pyridin-2-amine], the IC50 under setting [1] is 8160 nM.
Same read-out and setting: in the case of `COc1cc(OC)cc(-c2cnc3cnc(-c4ccc(C(=O)NCCCN(C)C)cc4)cn23)c1` [388_7492_0180, 4-[3-(3,5-dimethoxyphenyl)imidazo[1,2-a]pyrazin-6-yl]-N-[3-(dimethyl-amino)propyl] benzamide] it was 6690 nM; in that of `CCCN1CCc2nc(Nc3cc(OC)c(OC)c(OC)c3)ncc2C1` [582_9377_5632, 6-propyl-N-(3,4,5-trimethoxy-phenyl)-7,8-dihydro-5H-pyrido[4,3-d]pyrimidin-2-amine], 14700 nM.
Consider `CCNC(=O)N1CCc2nc(Nc3cc(OC)c(OC)c(OC)c3)ncc2C1` [582_9377_5725, N-ethyl-2-(3,4,5-trimethoxy-anilino)-7,8-dihydro-5H-pyrido[4,3-d]pyrimidine-6-carboxamide], for which, under setting [1], the IC50 amounted to 4250 nM.
On to `COc1ccccc1C(=O)N1Cc2cnc(Nc3cccc(N(C)C)c3)nc2C1` [585_9372_5053, [2-[3-(dimethylamino)anilino]-5,7-dihydropyrrolo [3,4-d]pyrimidin-6-yl]-(2-methoxyphenyl) methanone], for which, under setting [1], the IC50 was 10100 nM.
Regarding `c1csc(CNc2ccc3ncc(-c4ccncc4)n3n2)c1` [BF000145941, 3-(4-pyridyl)-N-(2-thienyl-methyl)-[1,2-a]pyridazin-6-amine], under setting [2], the IC50 was 105 nM.
`c1cc(-c2cnc3ccc(NCc4ccc5c(c4)OCO5)nn23)ccn1` [BF000146108, N-(1,3-benzodioxol-5-ylmethyl)-3-(4-pyridyl)-imidazo[1,2-b]pyridazin-6-amine]: under setting [2], the IC50 was determined as 297 nM.
On the same count and under the same terms, in the case of `COc1ccc(-c2cnc3ccc(NCc4ccc5c(c4)OCO5)nn23)cc1OC` [BF000146114, N-(1,3-benzodioxol-5-ylmethyl)-3-[3,4-dimethoxy-phenyl)-imidazo[1,2-b]pyridazin-6-amine] it was 6220 nM.
Regarding `COc1cc(-c2cnc3ccc(NCc4ccc5c(c4)OCO5)nn23)ccc1O` [BF000146126, 4-[6-(1,3-benzodioxol-5-ylmethyl-amino)-imidazo[1,2-b]pyridazin-3-yl]-2-methoxy-phenol], the IC50 under setting [2] came to 1310 nM.
Same read-out and setting: in the case of `Nc1cccc(-c2cnc3ccc(NC4CCOCC4)nn23)c1` [BF000146142, 3-(3-aminophenyl)-N-tetrahydro-pyran-4-yl-imidazo[1,2-b]pyridazin-6-amine] it was 1420 nM; in that of `COc1ccc(-c2cnc3ccc(NC4CCOCC4)nn23)cc1OC` [BF000146153, 3-(3,4-dimethoxy-phenyl)-N-tetrahydro-pyran-4-yl-imidazo[1,2-b]pyridazin-6-amine], 480 nM.
`CC(=O)Nc1cccc(-c2cnc3ccc(NC4CCOCC4)nn23)c1` [BF000146155, N-[3-[6-(tetra-hydropyran-4-ylamino)-imidazo[1,2-b]pyridazin-3-yl)phenyl]-acetamide]: the IC50 under setting [2] was 397 nM.
In the case of `COc1cccc(-c2cnc3ccc(NC4CCOCC4)nn23)c1` [BF000146183, 3-(3-methoxy-phenyl)-N-tetrahydro-pyran-4-yl-imidazo[1,2-b]pyridazin-6-amine], the IC50 under setting [2] turned out to be 829 nM.
Regarding `OCCCNc1ccc2ncc(-c3ccc4c(c3)OCO4)n2n1` [BF000146218, 3-[[3-(1,3-benzodioxol-5-yl)-imidazo[1,2-b]pyridazin-6-yl]amino]-propan-1-ol], under setting [2], the IC50 worked out at 708 nM.
Still for that read-out and setting: in the case of `COc1ccc(-c2cnc3ccc(NCCCO)nn23)cc1OC` [BF000146224, 3-[[3-(3,4-dimethoxy-phenyl)-imidazo[1,2-b]pyridazin-6-yl]-amino]-propan-1-ol] it was 725 nM; in that of `COc1cc(-c2cnc3ccc(NCCCO)nn23)ccc1O` [BF000146250, 4-[6-(3-hydroxy-propylamino)-imdazo[1,2-b]pyridazin-3-yl]-2-methoxy-phenol], 206 nM.
Still for that read-out and setting: as for `CC(=O)Nc1cccc(-c2cnc3ccc(N[C@H](CO)C(C)C)nn23)c1` [BF000146300, N-[3-[6-[[(1S)-1-(hydroxy-methyl)-2-methyl-propyl]-amino]-imidazo[1,2-b]pyridazin-3-yl]-phenyl]acetamide], the figure is 792 nM; as for `COc1cc(-c2cnc3ccc(N[C@H](CO)C(C)C)nn23)ccc1O` [BF000146319, 4-[6-[[(1S)-1-(hydroxy-methyl)-2-methyl-propyl]-amino]-imidazo[1,2-b]pyridazin-3-yl]-2-methoxy-phenol], 443 nM; as for `c1ccc(CNc2ccc3ncc(-c4ccc5c(c4)OCO5)n3n2)nc1` [BF000146330, 3-(1,3-benzodioxol-5-yl)-N-(2-pyridyl-methyl)-imidazo[1,2-b]pyridazin-6-amine], 355 nM.
Turning to `COc1ccc(-c2cnc3ccc(NCc4cccs4)nn23)cc1OC` [BF000146992, 3-(3,4-dimetboxy-phenyl)-N-(2-thienyl-methyl)-imidazo[1,2-b]pyridazin-6-amine], the IC50 under setting [2] was found to be 721 nM.
Still for that read-out and setting: as for `CCCNc1ccc2ncc(-c3ccncc3)n2n1` [BF000147056, N-propyl-3-(4-pyridyl)-imidazo[1,2-b]pyridazin-6-amine], the figure is 217 nM; as for `CCCNc1ccc2ncc(-c3ccc(OC)c(OC)c3)n2n1` [BF000147061, 3-(3,4-dimethoxy-phenyl)-N-propyl-imidazo[1,2-b]pyridazin-6-amine], 285 nM; as for `CCCNc1ccc2ncc(-c3cccc(O)c3)n2n1` [BF000147075, 3-[6-(propylamino)-imidazo[1,2-b]pyridazin-3-yl]phenol], 592 nM.
On the same count and under the same terms, in the case of `CCCNc1ccc2ncc(-c3ccc(O)c(OC)c3)n2n1` [BF000147080, 2-methoxy-4-[6-(propyl-amino)-imidazo[1,2-b]pyridazin-3-yl]phenol] it was 81.6 nM.
Same read-out and setting: as for `CCCNc1ccc2ncc(-c3cccc(C(C)=O)c3)n2n1` [BF000147088, 1-[3-[6-(propyl-amino)-imidazo[1,2-b]pyridazin-3-yl]phenyl]-ethanone], the figure is 406 nM; as for `CC(=O)c1cccc(-c2cnc3ccc(NCc4ccc5c(c4)OCO5)nn23)c1` [BF000147140, 1-[3-[6-(1,3-benzodioxol-5-ylmethyl-amino)-imidazo[1,2-b]pyridazin-3-yl]phenyl]-ethanone], 3190 nM; as for `COc1cc(-c2cnc3ccc(NC4CCOCC4)nn23)ccc1O` [BF000147168], 113 nM.
Take `COc1ccc(-c2cnc3ccc(NCc4ccccn4)nn23)cc1OC` [BF000147233, 3-(3,4-dimethoxy-phenyl)-N-(2-pyridyl-methyl)-imidazo[1,2-b]pyridazin-6-amine]: under setting [2], the IC50 is 494 nM.
For `COc1cc(-c2cnc3ccc(NC4CCOCC4)nn23)cc(OC)c1OC` [BF000147394, N-tetrahydro-pyran-4-yl-3-(3,4,5-trimethoxy-phenyl)-imidazo[1,2-b]pyridazin-6-amine], the IC50 under setting [2] came out at 503 nM.
Same read-out and setting: as for `COc1cc(-c2cc(-c3ccccc3)cnc2N)cc(OC)c1OC` [BF000312489, 5-phenyl-3-(3,4,5-trimethoxy-phenyl)-pyridin-2-amine], the figure is 1310 nM; as for `COc1cc(-c2cc(-c3ccc(N4CCN(C)CC4)cc3)cnc2N)cc(OC)c1OC` [BF000312520, 5-[4-(4-methyl-piperazin-1-yl)phenyl]-3-(3,4,5-trimethoxy-phenyl)-pyridin-2-amine], 232 nM; as for `COc1cc(-c2cc(-c3ccc(OCCCN(C)C)nc3)cnc2N)cc(OC)c1OC` [BF000312521, 5-[6-(3-(dimethyl-amino)-propoxy]-3-pyridyl]-3-(3,4,5-trimethoxy-phenyl)-pyridin-2-amine], 709 nM.
The same measure, in the same setting: in the case of `COc1cc(-c2cc(-c3cccc(O)c3)cnc2N)cc(OC)c1OC` [BF000312527, 3-[6-amino-5-(3,4,5-trimethoxy-phenyl)-3-pyridyl]-phenol] it was 526 nM.
Same read-out and setting: in the case of `COc1cc(-c2cc(-c3cccc(C(N)=O)c3)cnc2N)cc(OC)c1OC` [BF000312539, 3-[6-amino-5-(3,4,5-trimethoxy-phenyl)-3-pyridyl]-benzamide] it was 494 nM; in that of `COc1cc(-c2cc(-c3ccc(C(N)=O)cc3)cnc2N)cc(OC)c1OC` [BF000312540, 4-[6-amino-5-(3,4,5-trimethoxy-phenyl)-3-pyridyl]-benzamide], 458 nM; in that of `COc1cc(-c2cc(-c3ccc(C(=O)NC4CC4)cc3)cnc2N)cc(OC)c1OC` [BF000312541, 4-[6-amino-5-(3,4,5-trimethoxy-phenyl)-3-pyridyl]-N-cyclopropyl-benzamide], 377 nM.
Turning to `COc1cc(-c2cc(-c3cccc(C(=O)NCCO)c3)cnc2N)cc(OC)c1OC` [BF000312542, 3-[6-amino-5-(3,4,5-trimethoxy-phenyl)-3-pyridyl]-N-(2-hydroxy-ethyl)-benzamide], the IC50 under setting [2] turned out to be 1000 nM.
Same read-out and setting: in the case of `COc1cc(-c2cc(-c3ccc(S(C)(=O)=O)cc3)cnc2N)cc(OC)c1OC` [BF000312544, 5-(4-methyl-sulfonyl-phenyl)-3-(3,4,5-trimethoxy-phenyl)-pyridin-2-amine] it was 674 nM; in that of `COc1cc(-c2cc(-c3cccc(NS(C)(=O)=O)c3)cnc2N)cc(OC)c1OC` [BF000312545, N-[3-[6-amino-5-(3,4,5-trimethoxy-phenyl)-3-pyridyl]-phenyl]-methane-sulfonamide], 562 nM.
On the same count and under the same terms, in the case of `COc1cc(-c2cc(-c3ccc(N4CCN(C)CC4)cc3)cnc2N)ccc1O` [BF000313028, 4-[2-amino-5-[4-(4-methylpiperazin-1-yl)phenyl]-3-pyridyl]-2-methoxy-phenol] it was 121 nM.

As usually defined, the IC50 is the concentration that gives 50% inhibition.

Source of the values: patent publication US10688093B2, “Methods, compositions, and uses of novel Fyn kinase inhibitors” (priority 2015, dated 2020).
